# Like-named read-outs stand apart in the source and are kept apart here. Numbered stars: 1 amine (or outer) side, 2 acyl side, 3 side chain; on linkers, the order of the positions; unused ones are H or OH. Bridge positions count the residues as written; N and C are the ends. Square brackets hold non-standard residues; d marks the D form. Peptide text beside a SMILES is read from it. Phe(2,4-Cl2) = N[C@@H](Cc1ccc(Cl)cc1Cl)C(=O)O; Bip = N[C@@H](Cc1ccc(-c2ccccc2)cc1)C(=O)O; Phe(4-NH2) = Nc1ccc(C[C@H](N)C(=O)O)cc1; d2Thi = N[C@H](Cc1cccs1)C(=O)O; Suc = O=C(CCC(=O)[*:2])[*:1]
# Assays:
# rat paw edema model = assay: Rat paw edema model (carrageenan), anti-inflammatory activity; assay type: in vivo, Sprague-Dawley (SD) rats
# Experimental: Compounds 3, 4, 10 and 202 were tested in a rat paw edema model to determine anti-inflammatory activity. Seven groups (one for Vehicle A [15 mL PEG400, 3 mL Graves Grain alcohol (190 proof), 1.8 mL dimethylacetamide and 10.2 mL deionized water] alone as a negative control, one for Vehicle B [0.1M NaHCO3] alone as a negative control, one for each of the four test compounds dissolved in Vehicle A, and one for indomethacin dissolved in Vehicle B as a positive control), each group containing six Sprague-Dawley (SD) rats (180-200 g) randomized by weight. Initial paw volumes were measured by placing the right hind limb of the rat up to the top of the hock in a beaker of water sitting on a scale that had been tared to zero and recording the readout.
# Rats were pre-treated with either i) one of the test compounds, or ii) a positive or negative control. Vehicle A alone and test compound dissolved in Vehicle A (Compound 3-1.0 mg/kg; Compound 4-0.4 mg/kg; Compound 10-0.5 mg/kg; Compound 202-0.3 mg/kg) were administered by intravenous injection. Vehicle B alone and indomethacin (5 mg/kg in 0.1M NaHCO3) was administered by intraperitoneal injection. Thirty minutes after this pretreatment, rats were anesthetized and injected with 0.1 mL of carrageenan (10 mg/mL in water) in the subplantar region of the right hind foot using a ½ inch 26 gauge needle attached to a 1 cc syringe.
# At 2, 4 and 6 hours post-carrageenan injection, the right hind foot of each rat was measured for paw volume as described above.
# We next investigated the effect of varying intravenous doses of Compound 202 (0.05, 0.10, 0.30, and 1.00 mg/kg) in the same model using the same protocol (6 rats per group). […] We also investigated the affect of oral dosing (10 mg/kg) of Compound 202 in the same model. For oral dosing, a 2.5 mg/mL suspension of Compound 202 was prepared in Vehicle A. Rats were orally administered 4 mL/kg of that suspension.
# [1] = system: TNF-α (degradation of IkB in HeLa cells or A431 cells); assay: Human cell-based assay: inhibition of TNF-α induced degradation of IkB; settings: for inhibition at 5 µM: read-out: Inhibition at Various Compound Concentrations, 5 μM; for inhibition at 10 µM: read-out: Inhibition at Various Compound Concentrations, 10 μM
# [2] = biological target: T1, TNFα / TNFα receptor (TNFα R1/Fc) (Homo sapiens, UniProt P01375); assay: Inhibition of binding of TNFα to the TNFα receptor (plate ELISA competition); settings: Table 2
# T1 construct: purchased R&D Systems
# Procedure, shortened: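 Plates were coated with TNFα at 15 nM. Test compound and 8.33 nM receptor-Fc (PBST, 2% DMSO) were first mixed in solution for 30 min at room temperature, then transferred to the plates for another 30 min. Competition was read by absorbance at 450 nm after HRP anti-human IgG Fc detection with TMB.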
# [3] = read-out: Activity (IC50, inhibition of TNFα binding to TNFα R1/Fc)
# [4] = Activity (IC50, inhibition of TNFα binding to TNFα R1/Fc)
# [5] = 5 μM compound, HeLa or A431 cells
# [6] = 10 μM compound, HeLa or A431 cells
# T1 sequence (P01375 77-233 limits assumed, species assumed): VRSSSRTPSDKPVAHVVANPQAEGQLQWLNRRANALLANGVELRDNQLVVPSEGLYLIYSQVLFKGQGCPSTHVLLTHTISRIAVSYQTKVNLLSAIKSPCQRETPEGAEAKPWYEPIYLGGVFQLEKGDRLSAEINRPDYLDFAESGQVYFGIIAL
smiles,measurement,setting,value
"COc1ccc2c(c1)c(CC(=O)O)c(C)n2C(=O)c1ccc(Cl)cc1 [indomethacin, reference compound]",Change in Paw Volume,"rat paw edema model; Table 3, positive control 5 mg/kg IP, 2 h post-carrageenan",0.61 ± 0.10 mL
same,Change in Paw Volume,"rat paw edema model; Table 3, positive control 5 mg/kg IP, 4 h post-carrageenan",0.92 ± 0.12 mL
same,Change in Paw Volume,"rat paw edema model; Table 3, positive control 5 mg/kg IP, 6 h post-carrageenan",0.99 ± 0.10 mL
same,Change in Paw Volume,"rat paw edema model; Table 4, positive control IP (5 mg/kg), 2 h post-carrageenan",0.61 ± 0.08 mL
same,Change in Paw Volume,"rat paw edema model; Table 4, positive control IP (5 mg/kg), 4 h post-carrageenan",0.82 ± 0.05 mL
same,Change in Paw Volume,"rat paw edema model; Table 4, positive control IP (5 mg/kg), 6 h post-carrageenan",0.90 ± 0.11 mL
same,Change in Paw Volume,"rat paw edema model; Table 5, positive control IP (5 mg/kg), 2 h post-carrageenan",0.82 ± 0.08 mL
same,Change in Paw Volume,"rat paw edema model; Table 5, positive control IP (5 mg/kg), 4 h post-carrageenan",0.94 ± 0.10 mL
same,Change in Paw Volume,"rat paw edema model; Table 5, positive control IP (5 mg/kg), 6 h post-carrageenan",0.87 ± 0.11 mL
same,Change in Paw Volume,"rat paw edema model; Table 6, positive control IP (5 mg/kg), 2 h post-carrageenan",0.63 ± 0.08 mL
same,Change in Paw Volume,"rat paw edema model; Table 6, positive control IP (5 mg/kg), 4 h post-carrageenan",0.79 ± 0.17 mL
same,Change in Paw Volume,"rat paw edema model; Table 6, positive control IP (5 mg/kg), 6 h post-carrageenan",0.82 ± 0.21 mL
same,Change in Paw Volume,"rat paw edema model; Table 7, positive control IP (5 mg/kg), 2 h post-carrageenan",0.75 ± 0.14 mL
same,Change in Paw Volume,"rat paw edema model; Table 7, positive control IP (5 mg/kg), 4 h post-carrageenan",1.02 ± 0.09 mL
same,Change in Paw Volume,"rat paw edema model; Table 7, positive control IP (5 mg/kg), 6 h post-carrageenan",1.07 ± 0.08 mL
same,Change in Paw Volume,"rat paw edema model; Table 8, positive control IP (5 mg/kg), 2 h post-carrageenan",0.76 ± 0.13 mL
same,Change in Paw Volume,"rat paw edema model; Table 8, positive control IP (5 mg/kg), 4 h post-carrageenan",0.92 ± 0.09 mL
same,Change in Paw Volume,"rat paw edema model; Table 8, positive control IP (5 mg/kg), 6 h post-carrageenan",0.74 ± 0.08 mL
same,Change in Paw Volume,"rat paw edema model; Table 9, positive control IP (5 mg/kg), 2 h post-carrageenan",0.75 ± 0.14 mL
same,Change in Paw Volume,"rat paw edema model; Table 9, positive control IP (5 mg/kg), 4 h post-carrageenan",1.02 ± 0.09 mL
same,Change in Paw Volume,"rat paw edema model; Table 9, positive control IP (5 mg/kg), 6 h post-carrageenan",1.07 ± 0.08 mL
same,Change in Paw Volume,"rat paw edema model; Table 10, positive control IP (5 mg/kg), 2 h post-carrageenan",0.63 ± 0.08 mL
same,Change in Paw Volume,"rat paw edema model; Table 10, positive control IP (5 mg/kg), 4 h post-carrageenan",0.79 ± 0.17 mL
same,Change in Paw Volume,"rat paw edema model; Table 10, positive control IP (5 mg/kg), 6 h post-carrageenan",0.82 ± 0.21 mL
CC(C)[C@H](NC(=O)[C@@H]1Cc2ccc(cc2)NC(=O)CCC(=O)N[C@H](Cc2cccs2)C(=O)N[C@@H](Cc2ccc(-c3ccccc3)cc2)C(=O)N[C@H](Cc2ccccc2)C(=O)N1)C(=O)O [Compound 26] ([d2Thi][Bip][dF][Phe(4-NH2)]V-OH; linker N-4 via Suc),inhibition at 25 µM,"[1]; 25 μM compound, HeLa or A431 cells, read-out: Inhibition at Various Compound Concentrations, 25 μM",10 to 50%
same,IC50,[2]; [3],10 to 30 µM
O=C1COc2ccc(cc2)C[C@@H](C(=O)NCCO)NC(=O)[C@H](Cc2ccccc2)NC(=O)[C@@H](Cc2ccc(-c3ccccc3)cc2)NC(=O)[C@H](Cc2cccs2)N1 [Compound 390],inhibition at 5 µM,[1],< 10%
same,inhibition at 10 µM,[1],50 to 80%
same,IC50,[2]; [4],< 10 µM
O=C1COc2ccc(cc2)C[C@@H](C(=O)NC2(C(=O)O)CC2)NC(=O)[C@H](Cc2ccccc2)NC(=O)[C@@H](Cc2ccc(-c3ccccc3)cc2)NC(=O)[C@H](Cc2cccs2)N1 [Compound 391],inhibition at 5 µM,[1],10 to 50%
same,inhibition at 10 µM,[1],10 to 50%
same,IC50,[2]; [4],< 10 µM
"O=C1CCC(=O)N[C@H](Cc2cccs2)C(=O)N[C@@H](Cc2ccc(Cl)cc2Cl)C(=O)N[C@H](Cc2ccccc2)C(=O)N[C@H](C(=O)O)Cc2ccc(cc2)N1 [Compound 82] ([d2Thi][Phe(2,4-Cl2)][dF][Phe(4-NH2)]-OH; linker N-4 via Suc)",inhibition at 5 µM,[1]; [5],< 10%
same,inhibition at 10 µM,[1]; [6],< 10%
same,IC50,[2]; [3],10 to 30 µM
O=C1COc2ccc(cc2)C[C@@H](C(=O)N[C@@H](Cc2ccccc2)C(=O)O)NC(=O)[C@@H](CCc2ccc(C(F)(F)F)cc2)NC(=O)[C@H](Cc2ccccc2)NC(=O)[C@@H](Cc2ccc(C(F)(F)F)cc2)N1 [Compound 157],inhibition at 5 µM,[1]; [5],10 to 50%
same,inhibition at 10 µM,[1]; [6],50 to 80%
same,IC50,[2]; [3],< 10 µM
COC(=O)[C@H](CC(=O)O)NC(=O)[C@@H]1Cc2ccc(cc2)OCC(=O)N[C@H](Cc2cccs2)C(=O)N[C@@H](Cc2ccc(-c3ccccc3)cc2)C(=O)N[C@H](CCc2ccccc2)C(=O)N1 [Compound 325],inhibition at 10 µM,[1]; [6],< 10%
same,IC50,[2]; [3],< 10 µM
C[C@@H](NC(=O)[C@@H]1Cc2ccc(cc2)OCC(=O)N[C@H](Cc2cccs2)C(=O)N[C@@H](Cc2ccc(-c3ccccc3)cc2)C(=O)N[C@H](CCc2ccccc2)C(=O)N1)C(=O)O [Compound 305],inhibition at 10 µM,[1]; [6],< 10%
same,IC50,[2]; [3],< 10 µM
O=C1COc2ccc(cc2)C[C@@H](C(=O)NC2(C(=O)O)CC2)NC(=O)[C@H](Cc2ccccc2)NC(=O)[C@H](Cc2ccc(-c3ccccc3)cc2)NC(=O)[C@H](Cc2cccs2)N1 [Compound 344],inhibition at 5 µM,[1],10 to 50%
same,inhibition at 10 µM,[1],50 to 80%
same,IC50,[2]; [4],< 10 µM
